Test results reported in patent US20250382274A1, “COMPOSITIONS AND METHODS FOR THE TREATMENT OF PARKINSON'S AND GAUCHER DISEASE” (CHILDREN'S HOSPITAL MEDICAL CENTER, priority 2024, published 2025).
Substitutions are numbered along the chain they refer to. pEC50: −log10 of the molar value.

Experiments:
[1] = target: T1, GCase (purified enzyme, Velaglucerase alfa, VPRIV) (Homo sapiens, UniProt P04062); assay: GCase AC50 enzyme activity assay; format: biochemical; details: pH 5.6, 4-MuGlu substrate, compounds 0-40 μM
T1 construct: purchased Shire Human Genetic Therapies, Cambridge, MA
T1 sequence (P04062 40-536): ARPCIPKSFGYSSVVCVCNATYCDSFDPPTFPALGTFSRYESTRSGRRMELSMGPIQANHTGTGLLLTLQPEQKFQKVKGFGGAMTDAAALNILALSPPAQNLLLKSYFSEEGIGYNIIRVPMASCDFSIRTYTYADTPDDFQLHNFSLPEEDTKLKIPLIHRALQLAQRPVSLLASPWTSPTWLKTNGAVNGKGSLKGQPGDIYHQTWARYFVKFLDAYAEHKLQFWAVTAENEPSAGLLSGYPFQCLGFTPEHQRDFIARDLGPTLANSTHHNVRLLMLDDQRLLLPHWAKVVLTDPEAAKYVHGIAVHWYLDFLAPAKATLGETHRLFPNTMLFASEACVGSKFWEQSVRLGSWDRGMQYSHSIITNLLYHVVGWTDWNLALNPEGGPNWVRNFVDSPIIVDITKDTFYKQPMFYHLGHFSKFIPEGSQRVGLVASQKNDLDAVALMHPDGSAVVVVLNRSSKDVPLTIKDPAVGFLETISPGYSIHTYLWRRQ
Protocol: An in vitro enzyme assay was performed through a dose response curve of Compounds (0-40 μM) with purified enzyme (Velaglucerase alfa, VPRIV®, Shire Human Genetic Therapies, Cambridge, MA) in citric phosphate [0.025 mM] buffer (pH 5.6) where 4-MuGlu [4 mM] was the substrate. Compounds were pre-incubated with the enzyme for 40 minutes at room temperature prior to substrate addition, and then incubated at 37° C. for 1 hour. AC50 represents the concentration of a Compound that produces 50% of its maximal response in the in vitro GCase activity assay.
(§1) GCase activities were determined fluorometrically with 4-MuGlu. The relative fluorescence unit (RFU) of 4-MuGlu standard curve is generated with the plate reader (M5, Molecular Devise) as 1 n mole=56500 RFU. The human mutant Gaucher fibroblasts were purchased from Coriell Institute (Camden, NJ): N370/ΔGG (Cat #: GM00852) and L444P/L444P (cat #: GM00877)

[2] = target: T2, GCase L444P (L444P/L444P human mutant Gaucher fibroblasts) (Homo sapiens, UniProt P04062, L483P); assay: EC50 cell-based assay for GCase, mutant L444P/L444P fibroblasts (GCase L444P); details: 5 days compound treatment (0-20 μM)
T2 construct: The human mutant Gaucher fibroblasts were purchased from Coriell Institute; host or cells: human Gaucher fibroblasts L444P/L444P
T2 sequence (P04062 40-536 L483P): T1 sequence (P04062 40-536) with L444P
Protocol: (§2) In cell assays, GCase activity measurements were carried out on harvested cell pellets on the 5th day of Compound treatment. Healthy human fibroblasts (GCase cell), mutant N370/ΔGG (GCase N370S) or L444P/L444P (GCase L444P) were incubated with the Compound (0-20 μM) for 5 days with 15% fetal bovine serum (FBS) in Dulbecco's Modified Eagle Medium (DMEM) in 100 mm culture dishes. Fresh Medium with Compound were replaced every other day. On the 5th day of Compound treatment, harvested cell pellets were lysed with 1% Na-taurocholate (Tc) and 1% Triton X-100 (Tx), and mixed with the reaction buffer which contained 0.025 mM Citric phosphate buffer (pH 5.6), 0.25% Tc/Tx and 4 mM 4-MuGlu, then incubated at 37° C. for 1 hour. EC50 represents the concentration of a Compound that produces 50% of its maximal response in the cell-based GCase activity assay.
as §1

[3] = target: T3, GCase N370S (N370/ΔGG human mutant Gaucher fibroblasts) (Homo sapiens, UniProt P04062, N409S); assay: EC50 cell-based assay for GCase, mutant N370/ΔGG fibroblasts (GCase N370S); details: 5 days compound treatment (0-20 μM)
T3 construct: The human mutant Gaucher fibroblasts were purchased from Coriell Institute; host or cells: human Gaucher fibroblasts N370/ΔGG
T3 sequence (P04062 40-536 N409S): T1 sequence (P04062 40-536) with N370S
Protocol: as §2, §1

[4] = target: T4, GCase in healthy human fibroblasts (Homo sapiens, UniProt P04062); assay: EC50 cell-based assay for GCase, healthy human fibroblasts (GCase cell); details: 5 days compound treatment (0-20 μM)
T4 construct: Healthy human fibroblasts (GCase cell); endogenous in cells; host or cells: healthy human fibroblasts
T4 sequence (P04062 40-536): T1 sequence (P04062 40-536)
Protocol: as §2, §1

O=C(Nc1ccc(O)cc1)c1nc2cc(F)cc(C(=O)NCC3CCO3)c2o1 (centres unmarked) [Compound 26, 5-fluoro-N2-(4-hydroxyphenyl)-N7-(oxetan-2-ylmethyl)benzo[d]oxazole-2,7-dicarboxamide]
AC50 [1]: < 10 µM | pEC50 [2]: > 5.00 | pEC50 [3]: > 5.00 | pEC50 [4]: > 5.00

CN1CCC(NC(=O)C(C)(C)Oc2ccccc2C(=O)NCC2CCCO2)CC1 (centres unmarked) [Compound 37, 2-(2-(1-methylpiperidin-4-ylcarbamoyl)propan-2-yloxy)-N-((tetrahydrofuran-2-yl)methyl)benzamide]
AC50 [1]: < 10 µM | pEC50 [2]: > 5.00 | pEC50 [3]: > 5.00 | pEC50 [4]: > 5.00
